Data reported in ChEMBL document CHEMBL1201862, “PubChem BioAssay data set” (2004).
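Method: 48-hour compound exposure of cells in 96-well plates, five concentrations, linear interpolation of endpoints. At the GI50, growth is halved.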 The source made the active and inactive calls. Cut-off read from the data, not from the text of the source: active = GI50 up to about 1.1 µM and inactive = higher.

How the values were obtained:
Experiment in all cases: growth of human tumour cells (NCI), 48 h
HCT-116 = tested on: HCT-116
OVCAR-8 = tested on: OVCAR-8
OVCAR-3 = tested on: OVCAR-3
PC-3 = tested on: PC-3
HCC 2998 = tested on: HCC 2998
NCI/ADR-RES = tested on: NCI/ADR-RES
KM12 = tested on: KM12
MCF7 = tested on: MCF7
786-0 = tested on: 786-0
SR = tested on: SR
MDA-MB-231 = tested on: MDA-MB-231
HOP-92 = tested on: HOP-92
MDA-N = tested on: MDA-N
COLO 205 = tested on: COLO 205
TK-10 = tested on: TK-10
UO-31 = tested on: UO-31
SK-MEL-5 = tested on: SK-MEL-5
RXF 393 = tested on: RXF 393
A498 = tested on: A498
NCI-H460 = tested on: NCI-H460
MDA-MB-435 = tested on: MDA-MB-435
MOLT-4 = tested on: MOLT-4
SF-268 = tested on: SF-268
DU-145 = tested on: DU-145
SK-OV-3 = tested on: SK-OV-3
BT-549 = tested on: BT-549
SF-295 = tested on: SF-295
M14 = tested on: M14
SK-MEL-2 = tested on: SK-MEL-2
HT-29 = tested on: HT-29
UACC-257 = tested on: UACC-257
CAKI-1 = tested on: CAKI-1
SNB-75 = tested on: SNB-75
UACC-62 = tested on: UACC-62
SK-MEL-28 = tested on: SK-MEL-28
U-251 = tested on: U-251
OVCAR-5 = tested on: OVCAR-5
OVCAR-4 = tested on: OVCAR-4
ACHN = tested on: ACHN
EKVX = tested on: EKVX
SW-620 = tested on: SW-620
SN12C = tested on: SN12C
T47D = tested on: T47D
NCI-H522 = tested on: NCI-H522
HOP-62 = tested on: HOP-62
SNB-19 = tested on: SNB-19
IGROV-1 = tested on: IGROV-1
NCI-H23 = tested on: NCI-H23
A549 = tested on: A549
SF-539 = tested on: SF-539
HCT-15 = tested on: HCT-15
NCI-H226 = tested on: NCI-H226
RPMI-8226 = tested on: RPMI-8226
K562 = tested on: K562
HL-60 = tested on: HL-60
CCRF-CEM = tested on: CCRF-CEM
Malme-3M = tested on: Malme-3M
Hs-578T = tested on: Hs-578T

With COC(=O)[C@@H]1N2C(=S)N(c3ccccc3)C(=O)[C@H]2SC1(C)C the GI50 (HCT-116) was > 100 µM (inactive), the GI50 (OVCAR-8) was > 100 µM (inactive) and the GI50 (OVCAR-3) was > 100 µM (inactive). For the same molecule, the GI50 (PC-3) was > 100 µM (inactive), the GI50 (HCC 2998) was > 100 µM (inactive) and the GI50 (NCI/ADR-RES) was > 100 µM (inactive). The GI50 (KM12) was > 100 µM (inactive), the GI50 (MCF7) was > 100 µM (inactive) and the GI50 (786-0) was > 100 µM (inactive). For the same molecule, the GI50 (SR) was 65.6 µM (inactive), the GI50 (MDA-MB-231) was > 100 µM (inactive) and the GI50 (HOP-92) was 55.6 µM (inactive). The GI50 (MDA-N) was > 100 µM (inactive), the GI50 (COLO 205) was > 100 µM (inactive) and the GI50 (TK-10) was > 100 µM (inactive). For the same molecule, the GI50 (UO-31) was > 100 µM (inactive), the GI50 (SK-MEL-5) was > 100 µM (inactive) and the GI50 (RXF 393) was > 100 µM (inactive). The GI50 (A498) was 91.4 µM (inactive), the GI50 (NCI-H460) was > 100 µM (inactive) and the GI50 (MDA-MB-435) was > 100 µM (inactive). For the same molecule, the GI50 (MOLT-4) was > 100 µM (inactive), the GI50 (SF-268) was > 100 µM (inactive) and the GI50 (DU-145) was > 100 µM (inactive). The GI50 (SK-OV-3) was > 100 µM (inactive), the GI50 (BT-549) was > 100 µM (inactive) and the GI50 (SF-295) was > 100 µM (inactive). For the same molecule, the GI50 (M14) was > 100 µM (inactive), the GI50 (SK-MEL-2) was > 100 µM (inactive) and the GI50 (HT-29) was > 100 µM (inactive). For the same molecule, the GI50 (UACC-257) was > 100 µM (inactive), the GI50 (CAKI-1) was > 100 µM (inactive) and the GI50 (SNB-75) was > 100 µM (inactive). For the same molecule, the GI50 (UACC-62) was > 100 µM (inactive), the GI50 (SK-MEL-28) was > 100 µM (inactive) and the GI50 (U-251) was > 100 µM (inactive). The GI50 (OVCAR-5) was > 100 µM (inactive), the GI50 (OVCAR-4) was > 100 µM (inactive) and the GI50 (ACHN) was > 100 µM (inactive). The GI50 (EKVX) was > 100 µM (inactive), the GI50 (SW-620) was > 100 µM (inactive) and the GI50 (SN12C) was > 100 µM (inactive). For the same molecule, the GI50 (T47D) was > 100 µM (inactive), the GI50 (NCI-H522) was > 100 µM (inactive) and the GI50 (HOP-62) was > 100 µM (inactive). The GI50 (SNB-19) was > 100 µM (inactive), the GI50 (IGROV-1) was > 100 µM (inactive) and the GI50 (NCI-H23) was > 100 µM (inactive). The GI50 (A549) was > 100 µM (inactive), the GI50 (SF-539) was > 100 µM (inactive) and the GI50 (HCT-15) was > 100 µM. For the same molecule, the GI50 (NCI-H226) was > 100 µM (inactive) and the GI50 (RPMI-8226) was > 100 µM (inactive).
For Cc1nc(Nc2nc3ccccc3[nH]2)nc(Cl)c1CCCl, the GI50 (HCT-116) was > 100 µM (inactive), the GI50 (K562) was > 100 µM (inactive) and the GI50 (OVCAR-8) was > 100 µM (inactive). For the same molecule, the GI50 (PC-3) was > 100 µM (inactive), the GI50 (NCI/ADR-RES) was > 100 µM (inactive) and the GI50 (KM12) was > 100 µM (inactive). For the same molecule, the GI50 (786-0) was > 100 µM (inactive), the GI50 (HL-60) was > 100 µM (inactive) and the GI50 (CCRF-CEM) was > 100 µM (inactive). For the same molecule, the GI50 (SR) was > 100 µM (inactive), the GI50 (MDA-MB-231) was > 100 µM (inactive) and the GI50 (Malme-3M) was > 100 µM (inactive). For the same molecule, the GI50 (HOP-92) was < 0.01 µM (active), the GI50 (Hs-578T) was 83.8 µM (inactive) and the GI50 (MDA-N) was > 100 µM (inactive). For the same molecule, the GI50 (COLO 205) was > 100 µM (inactive), the GI50 (TK-10) was > 100 µM (inactive) and the GI50 (UO-31) was > 100 µM (inactive). The GI50 (SK-MEL-5) was > 100 µM (inactive), the GI50 (A498) was > 100 µM (inactive) and the GI50 (NCI-H460) was > 100 µM (inactive). For the same molecule, the GI50 (MDA-MB-435) was > 100 µM (inactive), the GI50 (MOLT-4) was > 100 µM (inactive) and the GI50 (SF-268) was 95.7 µM (inactive). For the same molecule, the GI50 (DU-145) was > 100 µM (inactive), the GI50 (BT-549) was > 100 µM (inactive) and the GI50 (M14) was > 100 µM (inactive). For the same molecule, the GI50 (SK-MEL-2) was > 100 µM (inactive), the GI50 (HT-29) was > 100 µM (inactive) and the GI50 (UACC-257) was > 100 µM (inactive). For the same molecule, the GI50 (CAKI-1) was > 100 µM (inactive), the GI50 (SNB-75) was 89.3 µM (inactive) and the GI50 (UACC-62) was > 100 µM (inactive). For the same molecule, the GI50 (SK-MEL-28) was > 100 µM (inactive), the GI50 (U-251) was 49 µM (inactive) and the GI50 (OVCAR-4) was > 100 µM (inactive). The GI50 (ACHN) was > 100 µM (inactive), the GI50 (EKVX) was > 100 µM (inactive) and the GI50 (SW-620) was > 100 µM (inactive). The GI50 (SN12C) was > 100 µM (inactive), the GI50 (T47D) was > 100 µM (inactive) and the GI50 (NCI-H522) was > 100 µM (inactive). For the same molecule, the GI50 (SNB-19) was > 100 µM (inactive), the GI50 (IGROV-1) was > 100 µM (inactive) and the GI50 (NCI-H23) was > 100 µM (inactive). The GI50 (A549) was > 100 µM (inactive), the GI50 (SF-539) was > 100 µM (inactive) and the GI50 (HCT-15) was > 100 µM. For the same molecule, the GI50 (NCI-H226) was > 100 µM (inactive) and the GI50 (RPMI-8226) was > 100 µM (inactive).
